{"source": "patent US20090221649A1", "about": "“Use of substituted 2-thio-3,5-dicyano-4-phenyl-6-aminopyridines for the treatment of reperfusion injury and reperfusion damage” (Bayer HealthCare AG, priority 2005, published 2009)", "key": {"isolated rabbit hearts": {"system": "isolated rabbit hearts", "experiment": "Limitation of infarct size in isolated buffer-perfused rabbit hearts, drug at reperfusion", "protocol": "The quantification of infarct size and experimental design followed the protocol described by Zhang et al., J Cardiovasc Pharmacol 42, 2003.\nHearts were quickly removed from anesthetized rabbits and perfused with Krebs buffer. […] The risk zone was stained with fluorescent microspheres, then the heart was sliced into 2 mm sections and the infarct size was visualized by tetrazolium staining. The drug was mixed with the perfusate at 50 μg/L starting 5 min prior to reperfusion and continuing for 55 min. […] Ischemic preconditioning is the most powerful cardioprotective intervention known but of no practical value clinically."}, "rabbit hearts (in vivo)": {"system": "rabbit hearts (in vivo)", "experiment": "Limitation of infarct size in rabbit hearts in vivo (open-chest rabbits), drug at reperfusion", "parameters": "species or system New Zealand White rabbits", "protocol": "Rabbits (New Zealand White rabbits of either sex weighing 1.6 to 3.0 kg) were anesthetized with sodium pentobarbital (30 mg/kg) which was subsequently supplemented as needed. Positive pressure ventilation with 100% oxygen was instituted. The heart was exposed through a left thoracotomy and a ligature was passed under a coronary branch to create the ischemia. Drug was given intravenously in a dose of 10 μg/kg over 1 min starting 5 min prior to reperfusion and again 15 min after reperfusion. The heart was removed after 3 hr of reperfusion. The risk zone was stained with fluorescent microspheres, then the heart was sliced into 2 mm sections and the infarct size was determined by tetrazolium staining.\nPostconditioning is an established cardioprotective intervention where the occluded artery is intermittently opened and closed for four 30-second cycles at the end of the ischemic insult."}, "[1]": {"experiment": "Tolerability when given intravenously", "assay_type": "in vivo"}}, "note": "Entries after “also recorded” stand apart in the source; their conditions may differ."}
{"smiles": "N#Cc1c(N)nc(SCC(N)=O)c(C#N)c1-c1ccc(O)cc1", "note": "[Compound A, 2-{[6-Amino-3,5-dicyano-4-(4-hydroxyphenyl)pyridin-2-yl]thio}acetamide]", "values": [{"measurement": "reduction of infarct size", "setting": "isolated rabbit hearts; 50 μg/L in perfusate from 5 min prior to reperfusion for 55 min, 30 min ischemia, 2 hr reperfusion", "value": "~50", "unit": "%"}, {"measurement": "protection compared with ischemic preconditioning (IPC)", "setting": "isolated rabbit hearts; 50 μg/L, IPC = 5 min ischemia and 10 min reperfusion", "value": "not as protective as ischemic preconditioning"}, {"measurement": "infarct size in % of risk area, untreated hearts in comparison to treated hearts", "setting": "isolated rabbit hearts; 50 μg/L, p=0.032", "value": "significantly larger"}]}
{"smiles": "N#Cc1c(N)nc(SCC(N)=O)c(C#N)c1-c1ccc(OCC2CC2)cc1", "note": "[Compound B, 2-({6-Amino-3,5-dicyano-4-[4-(cyclopropylmethoxy)phenyl]pyridin-2-yl}thio)acetamide]", "values": [{"measurement": "infarct size limitation compared with postconditioning", "setting": "rabbit hearts (in vivo); 10 μg/kg i.v. 5 min prior to and 15 min after reperfusion", "value": "equivalent to postconditioning in its potency; also recorded: as effective as postconditioning"}, {"measurement": "reduction of infarct size", "setting": "rabbit hearts (in vivo); 10 μg/kg i.v. 5 min prior to and 15 min after reperfusion, 30 min regional ischemia, 3 hr reperfusion", "value": "> 50", "unit": "%"}, {"measurement": "adverse hemodynamic effects", "setting": "rabbit hearts (in vivo); 10 μg/kg i.v., open-chest rabbits", "value": "No adverse hemodynamic effects"}, {"measurement": "tolerability", "setting": "[1]", "value": "well tolerated"}]}
